Assay results as given in article PMC7321065, “Discovery of New Schiff Bases Tethered Pyrazole Moiety: Design, Synthesis, Biological Evaluation, and Molecular Docking Study as Dual Targeting DHFR/DNA Gyrase Inhibitors with Immunomodulatory Activity” (Molecules, 2020).
In brackets after ≈: the same amount, converted by molar mass. Read-outs that look alike come from different tables or passages of the source.

Columns and labels:
Escherichia coli [1] = test: MIC/MBC, paper disk diffusion; assay type: cell-based; conditions: Escherichia coli
Method: (§1) Antimicrobial activities of the newly formed Schiff bases (6a–d, 7a–d, 8a–d, and 9a–d) and reference drugs were evaluated against three Gram-positive, three Gram-negative, and two fungi strain at Al-Azhar University, Cairo, Egypt. The inhibition zones (IZ, in mm ± standard deviation) and the minimal inhibitory concentration (MIC) (μg/mL) were determined by the conventional paper disk diffusion method.
(§2) In Vitro Antimicrobial Activities […]
(§3) DMSO was used for dissolving […]
(§4) the tested microorganisms.
(§5) The minimum inhibitory concentration (MIC), the minimum bactericidal concentration (MBC, µg/ml) and […]
(§6) and 9b) were determined by the conventional technique termed paper disk diffusion, by applying paper […]
(§7) Bacteria were grown on nutrient agar medium, while fungi and yeast were grown on Sabouraud agar medium. The purified streptomycin was dissolved in […]
(§8) inoculated with test organism. Growth inhibition was examined after 24 hr. from incubation at 37 °C for bacteria and after 72 hr. incubation at 27 °C for fungi and yeast. Each test was repeated three times. MIC was expressed as the lowest concentration inhibiting test organism’s growth. […]

Pseudomonas aeruginosa [2] = test: MIC/MBC, paper disk diffusion; assay type: cell-based; conditions: Pseudomonas aeruginosa
Method: as §1, §2, §3, §4, §5, §6, §7, §8

Staphylococcus aureus [3] = test: MIC/MBC, paper disk diffusion; assay type: cell-based; conditions: Staphylococcus aureus
Method: as §1, §2, §3, §4, §5, §6, §7, §8

Bacillus subtilis [4] = test: MIC/MBC, paper disk diffusion; assay type: cell-based
Method: as §1, §2, §3, §4, §5, §6, §7, §8

Enterococcus faecalis [5] = test: MIC/MBC, paper disk diffusion; assay type: cell-based
Method: as §1, §2, §3, §4, §5, §6, §7, §8

Salmonella typhi [6] = test: MIC/MBC, paper disk diffusion; assay type: cell-based; conditions: Salmonella enterica
Method: as §1, §2, §3, §4, §5, §6, §7, §8

Candida albicans [7] = test: Inhibition zone, agar plate diffusion; assay type: cell-based; conditions: read-out: Inhibition zone (IZ)
Method: as §1
(§9) In Vitro Antimicrobial Activities
(§10) The antimicrobial activities inhibition zone (IZ, mm±standard deviation) of pyrazole Schiff bases ( 6a-d , 7a-d, 8a-d and 9a-d ) was measurement according to the agar plate diffusion method. Briefly, 100 µl of the […]
(§11) […] of each sample (at 0.5 mg/mL) was added to each well (10 mm diameter holes cut in the agar gel). The plates were incubated for 24 h at 37 °C (for bacteria and yeast) and for 72 h at 27 °C (for filamentous fungi), each test was repeated three times. After incubation, the microorganism's growth was observed. […]
(§12) drugs while Amphotericin B was used as standard antifungal drug. The resulting inhibition zone diameters were measured in millimeters and used as criterion for the antimicrobial activity. Solvent controls (DMSO) were included in every experiment as negative controls. DMSO was used for dissolving […]
(§13) the tested microorganisms. […]
(§14) Bacteria were grown on nutrient agar medium, while fungi and yeast were grown on Sabouraud agar medium. […]

Staphylococcus aureus [8] = test: Inhibition zone, agar plate diffusion; assay type: cell-based; conditions: read-out: Inhibition zone (IZ)
Method: as §1, §9, §10, §11, §12, §13, §14

Fusarium oxysporum [9] = test: Inhibition zone, agar plate diffusion; assay type: cell-based; conditions: read-out: Inhibition zone (IZ)
Method: as §1, §9, §10, §11, §12, §13, §14

Salmonella typhi [10] = test: Inhibition zone, agar plate diffusion; assay type: cell-based; conditions: Salmonella enterica, read-out: Inhibition zone (IZ)
Method: as §1, §9, §10, §11, §12, §13, §14

Escherichia coli [11] = test: Inhibition zone, agar plate diffusion; assay type: cell-based; conditions: read-out: Inhibition zone (IZ)
Method: as §1, §9, §10, §11, §12, §13

Pseudomonas aeruginosa [12] = test: Inhibition zone, agar plate diffusion; assay type: cell-based; conditions: read-out: Inhibition zone (IZ)
Method: as §1, §9, §10, §11, §12, §13

Bacillus subtilis [13] = test: Inhibition zone, agar plate diffusion; assay type: cell-based; conditions: read-out: Inhibition zone (IZ)
Method: as §1, §9, §10, §11, §12, §13

Enterococcus faecalis [14] = test: Inhibition zone, agar plate diffusion; assay type: cell-based; conditions: read-out: Inhibition zone (IZ)
Method: as §1, §9, §10, §11, §12, §13

[15] = system: S. aureus ATCC 43300 (MRSA); test: MIC/MBC against MDRB, paper disk diffusion; assay type: cell-based; conditions: Staphylococcus aureus
Text: (§15) The inhibition zone (IZ, mm±standard deviation) of pyrazole Schiff bases ( 6b, 7b, 7c, 8a, 8d and 9b) was
(§16) measurement according to the agar plate diffusion method against a panel of multidrug-resistant bacteria
(MDRB). […]

S. aureus ATCC 33591 = test: MIC/MBC against MDRB, paper disk diffusion; assay type: cell-based; conditions: Staphylococcus aureus, ATCC33591
Text: as §15, §16
(MDRB). […]

E. coli ATCC BAA-196 [16] = test: MIC/MBC against MDRB, paper disk diffusion; assay type: cell-based; conditions: Escherichia coli, ATCCBAA196
Text: as §15, §16
(MDRB). […]

[17] = system: P. aeruginosa ATCC BAA-2111; test: MIC/MBC against MDRB, paper disk diffusion; assay type: cell-based; conditions: Pseudomonas aeruginosa, ATCCBAA2111
Text: as §15, §16
(MDRB). […]

[18] = system: P. aeruginosa ATCC BAA-2111; test: Inhibition zone against MDRB, agar plate diffusion; assay type: cell-based
[19] = system: S. aureus ATCC 43300 (MRSA); test: Inhibition zone against MDRB, agar plate diffusion; assay type: cell-based
E. coli ATCC BAA-196 [20] = test: Inhibition zone against MDRB, agar plate diffusion; assay type: cell-based
[21] = system: mammary gland breast cancer cell line (MCF-7); test: Antiproliferative activity, MTT assay; assay type: cell-based, human; conditions: Homo sapiens, MCF7, 48 h, read-out: IC50 MCF-7
Method: (§17) 3-[4, 5-Dimethyl-2-thiazolyl)-2, 5-diphenyl-2 H-tetrazolium bromide (MTT) protocol is based on the cleavage of the tetrazolium salt by mitochondrial dehydrogenases in viable cells. Cells were dispensed in a 96 well sterile microplate (5 x 10^4 cells/well), and incubated at 37 °C with series of different concentrations, in DMSO, of each tested compound or Doxorubicin ® (positive control) for 48 h in a serum free medium prior to the MTT assay. After incubation, media were carefully removed, 40 µL of MTT (2.5 mg/mL) were added to each well and then incubated for an additional 4 h. The purple formazan dye crystals were solubilized by the addition of 200 µL of DMSO. The absorbance was measured at 590 nm using a SpectraMax® Paradigm® Multi-Mode microplate reader. The relative cell viability was expressed as the mean percentage of viable cells compared to the untreated control cells.
(§18) All experiments were conducted in triplicate and repeated in three different days. All the values were represented as mean ± SD. IC 50s were determined by probit analysis using SPSS software program (SPSS

[22] = system: hepatocellular carcinoma cell line (HepG2); test: Antiproliferative activity, MTT assay; assay type: cell-based, human; conditions: Homo sapiens, HepG2, 48 h, read-out: IC50 HepG-2
Method: as §17, §18

Candida albicans [23] = test: MIC/MFC, paper disk diffusion; assay type: cell-based; conditions: Candida albicans
Method: as §1, §2, §3, §4, §5, §6, §7, §8

Fusarium oxysporum [24] = test: MIC/MFC, paper disk diffusion; assay type: cell-based; conditions: Fusarium oxysporum
Method: as §1, §2, §3, §4, §5, §6, §7, §8

CN(C)[C@@H]1C(O)=C(C(N)=O)C(=O)[C@@]2(O)C(O)=C3C(=O)c4c(O)cccc4[C@@](C)(O)[C@H]3C[C@@H]12 [Tetracycline, reference compound]
MBC (Escherichia coli [1]; E. coli, read-out: MBC): 18.7 µg/mL (≈ 42.2 µM)
MIC (Escherichia coli [1]; E. coli, read-out: MIC): 15.6 µg/mL (≈ 35.1 µM)
MBC (Pseudomonas aeruginosa [2]; P. aeruginosa, read-out: MBC): 87.5 µg/mL (≈ 197 µM)
MIC (Pseudomonas aeruginosa [2]; P. aeruginosa, read-out: MIC): 62.5 µg/mL (≈ 141 µM)
MBC (Staphylococcus aureus [3]; S. aureus, read-out: MBC): 87.5 µg/mL (≈ 197 µM)
MIC (Staphylococcus aureus [3]; S. aureus, read-out: MIC): 62.5 µg/mL (≈ 141 µM)
MBC (Bacillus subtilis [4]; Bacillus subtilis, B. subtilis, read-out: MBC): 40.6 µg/mL (≈ 91.4 µM)
MBC (Enterococcus faecalis [5]; E. faecalis, read-out: MBC): 93.8 µg/mL (≈ 211 µM)
MIC (Enterococcus faecalis [5]; E. faecalis, read-out: MIC): 62.5 µg/mL (≈ 141 µM)
MBC (Salmonella typhi [6]; TYPHI): 43.8 µg/mL (≈ 98.4 µM)
zone of inhibition at 500 µg/mL (Candida albicans [7]; Ca, mm ± standard deviation, sample at 0.5 mg/mL): < 8 mm
zone of inhibition at 500 µg/mL (Staphylococcus aureus [8]; Sa, mm ± standard deviation, sample at 0.5 mg/mL): 25 ± 0.11 mm
zone of inhibition at 500 µg/mL (Fusarium oxysporum [9]; Fo, mm ± standard deviation, sample at 0.5 mg/mL): < 8 mm
zone of inhibition at 500 µg/mL (Salmonella typhi [10]): 21 ± 0.55 mm
zone of inhibition at 500 µg/mL (Escherichia coli [11]; Ec, mm ± standard deviation, sample at 0.5 mg/mL): 23 ± 0.2 mm
zone of inhibition at 500 µg/mL (Pseudomonas aeruginosa [12]; Pa, mm ± standard deviation, sample at 0.5 mg/mL): 20 ± 0.5 mm
zone of inhibition at 500 µg/mL (Bacillus subtilis [13]; Bs, mm ± standard deviation, sample at 0.5 mg/mL): 25 ± 0.22 mm
zone of inhibition at 500 µg/mL (Enterococcus faecalis [14]; Ef, mm ± standard deviation, sample at 0.5 mg/mL): 22 ± 0.25 mm

COc1ccc(Nc2n[nH]c(N=Cc3c(C)n(C)n(-c4ccccc4)c3=O)c2C(=O)Nc2ccccc2)cc1 [6b, 5-((1,5-Dimethyl-3-oxo-2-phenyl-2,3-dihydro-1H-pyrazol-4-yl)methyleneamino)-3-(p-methoxyphenylamino)-N-phenyl-1H-pyrazole-4-carboxamide]
MBC [15]: 11.9 µg/mL (≈ 22.8 µM)
MIC [15]: 6.25 µg/mL (≈ 12 µM)
MBC (S. aureus ATCC 33591): 15.6 µg/mL (≈ 29.9 µM)
MIC (S. aureus ATCC 33591): 7.81 µg/mL (≈ 15 µM)
MBC (E. coli ATCC BAA-196 [16]): 7.41 µg/mL (≈ 14.2 µM)
MIC (E. coli ATCC BAA-196 [16]): 3.9 µg/mL (≈ 7.48 µM)
MBC [17]: 16 µg/mL (≈ 30.6 µM)
MIC [17]: 7.81 µg/mL (≈ 15 µM)
Mean Diameter of Inhibition Zone against MDRB [18]: 21 ± 0.66 mm
MIC (Escherichia coli [1]): 62.5 µg/mL (≈ 120 µM)
MBC (Escherichia coli [1]; E. coli): 87.5 µg/mL (≈ 168 µM)
MIC (Pseudomonas aeruginosa [2]): 31.2 µg/mL (≈ 59.9 µM)
MBC (Pseudomonas aeruginosa [2]; P. aeruginosa): 53.1 µg/mL (≈ 102 µM)
MIC (Staphylococcus aureus [3]): 15.6 µg/mL (≈ 29.9 µM)
MBC (Staphylococcus aureus [3]; S. aureus): 31.2 µg/mL (≈ 59.9 µM)
Fold more potent than Tetracycline (MIC) (Bacillus subtilis [4]; B. subtilis): 4 fold
MIC (Bacillus subtilis [4]; Bacillus subtilis): 7.81 µg/mL (≈ 15 µM)
MBC (Bacillus subtilis [4]; Bacillus subtilis, B. subtilis): 14.1 µg/mL (≈ 26.9 µM)
MIC (Enterococcus faecalis [5]): 9.25 µg/mL (≈ 17.7 µM)
MBC (Enterococcus faecalis [5]; E. faecalis): 18.5 µg/mL (≈ 35.5 µM)
MIC (Salmonella typhi [6]; S. typhi): 15.6 µg/mL (≈ 29.9 µM)
MBC (Salmonella typhi [6]; S. typhi, read-out: MBC): 28.1 µg/mL (≈ 53.9 µM)
Mean Diameter of Inhibition Zone against MDRB [19]: 21 ± 0.21 mm
Mean Diameter of Inhibition Zone against MDRB (E. coli ATCC BAA-196 [20]): 25 ± 0.15 mm
zone of inhibition at 500 µg/mL (Candida albicans [7]): 22 ± 0.56 mm
zone of inhibition at 500 µg/mL (Staphylococcus aureus [8]): 24 ± 0.12 mm
zone of inhibition at 500 µg/mL (Fusarium oxysporum [9]): 18 ± 0.15 mm
zone of inhibition at 500 µg/mL (Salmonella typhi [10]; St, mm ± standard deviation, sample at 0.5 mg/mL): 20 ± 0.16 mm
IC50 [21]: 5.09 ± 0.52 µM
IC50 [22]: 3.42 ± 0.17 µM
zone of inhibition at 500 µg/mL (Escherichia coli [11]): 25 ± 0.81 mm
zone of inhibition at 500 µg/mL (Pseudomonas aeruginosa [12]): 24 ± 0.2 mm
zone of inhibition at 500 µg/mL (Bacillus subtilis [13]): 30 ± 0.5 mm
zone of inhibition at 500 µg/mL (Enterococcus faecalis [14]): 29 ± 0.55 mm
MFC (Candida albicans [23]): 53.1 µg/mL (≈ 102 µM)
MIC (Candida albicans [23]): 31.2 µg/mL (≈ 59.9 µM)
MFC (Fusarium oxysporum [24]): 88.8 µg/mL (≈ 170 µM)
MIC (Fusarium oxysporum [24]): 55.5 µg/mL (≈ 106 µM)
